Experimental data: patent publication US20250161216A1, “CATIONIC LIPID ANALOGUES, COMPOSITIONS AND USES THEREOF” (GUANGZHOU LIDE BIOMEDICINE TECHNOLOGY CO., LTD., priority 2022, published 2025)

Legend:
[1] = test system: C57BL/6 mice; test: In vivo expression level of Luciferase-mRNA delivered by intravenous injection (bioluminescence imaging); conditions: mRNA-loaded nanoparticles, intravenous (tail vein), 5 μg Luciferase-mRNA, 6 hours; for Bioluminescence intensity / Fluorescence intensity of liver: compounds of Example 1; for Fluorescence intensity of spleen: compounds of Example 2
Procedure, shortened: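 Lipid nanoparticles carrying 5 μg Luciferase-mRNA given by tail-vein injection to 6-8-week-old C57BL/6 mice. At 6 h, 3 mg D-luciferin i.p. in PBS; bioluminescence imaged 10 min later as the expression read-out.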

[2] = test system: C57BL/6 mice; test: In vivo expression level of Luciferase-mRNA delivered by intramuscular injection (bioluminescence imaging); conditions: mRNA-loaded nanoparticles, intramuscular (leg muscle), 5 μg Luciferase-mRNA, 6 hours
Description: Luciferase-mRNA was used as an mRNA model; and the cationic lipid analogues of Examples 1-5 were used to prepare drug-loaded nanoparticles according to the method of Example 6.
100 μL of nanoparticles containing 5 μg Luciferase-mRNA or the drug-loaded nanoparticles prepared above were injected into the leg muscles of 6-8 week-old C57BL/6 mice, and 200 μL of 1×PBS solution containing 3 mg D-Luciferin potassium salt was intraperitoneally injected into the mice 6 hours later. After waiting for 10 minutes, an in vivo expression level of the mRNA was evaluated by bioluminescence imaging.

Row | Structure (SMILES) | Bioluminescence intensity [1] | Local fluorescence intensity ([2]; compounds of Example 1) | Fluorescence intensity of liver [1] | Fluorescence intensity of spleen [1] | Local fluorescence intensity ([2]; compounds of Example 2)
1 | CCCCCCCC/C=C\CCCCCCCC(=O)N(CCCN(C)C)C(C(=O)NCCCCCCCCCCCCCCCCCC)C(CC)CCCC (stereo not shown) [A4I18R2C18-1] | 1.33E+07 | 1.32E+07 |  |  | 
2 | CCCCC/C=C\C/C=C\CCCCCCCC(=O)N(CCCN(C)C)C(C(=O)NCCCCCCCCCCCCCCCCCC)C(CC)CCCC (stereo not shown) [A4I18R2C18-2] | 2.06E+07 | 2.97E+07 |  |  | 
3 | CCCCCCCCCCCCCCCCCCNC(=O)C(C(CC)CCCC)N(CCCN(C)C)C(=O)CCCCCCCCCCCCCCCCC (stereo not shown) [A4I18R2C18] |  | 9.04E+05 | 5.05E+05 |  | 
4 | CCCCCCCC/C=C\CCCCCCCC(=O)N(CCCN(CC)CC)C(C(=O)NCCCCCCCCCCCCCCCCCC)C(CC)CCCC (stereo not shown) [A4I18R3C18-1] | 1.39E+07 | 1.77E+07 |  |  | 
5 | CCCCC/C=C\C/C=C\CCCCCCCC(=O)N(CCCN1CCOCC1)C(C(=O)NCCCCCCCCCCCCCCCCCC)C(CC)CCCC (stereo not shown) [A4I18R5C18-2] |  | 4.99E+05 | 8.34E+03 |  | 
6 | CCCCCCCCCCCCCCCCCCNC(=O)C(C(CC)CCCC)N(CCCN1CCOCC1)C(=O)CCCCCCCCCCCCCCCCC (stereo not shown) [A4I18R5C18] |  | 4.33E+05 | 2.68E+03 |  | 
7 | CCCCC/C=C\C/C=C\CCCCCCCC(=O)N(CCN1CCCCC1)C(C(=O)NCCCCCCCCCCCCCCCCCC)C(CC)CCCC (stereo not shown) [A4I18R12C18-2] |  | 2.60E+05 | 9.22E+03 |  | 
8 | CCCCCCCCCCCCCCCCCCNC(=O)C(C(CC)CCCC)N(CCN1CCCCC1)C(=O)CCCCCCCCCCCCCCCCC (stereo not shown) [A4I18R12C18] |  | 1.75E+05 | 2.31E+03 |  | 
9 | CCCCCCCC/C=C\CCCCCCCC(=O)N(CCO)C(C(=O)NCCN(C)CCNC(=O)C(C1CCCCC1)N(CCO)C(=O)CCCCCCC/C=C\CCCCCCCC)C1CCCCC1 (stereo not shown) [A23I4R22C18-1] |  |  |  | 6.57E+05 | 1.41E+05
10 | CCCCC/C=C\C/C=C\CCCCCCCC(=O)N(CCO)C(C(=O)NCCN(C)CCNC(=O)C(C1CCCCC1)N(CCO)C(=O)CCCCCCC/C=C\C/C=C\CCCCC)C1CCCCC1 (stereo not shown) [A23I4R22C18-2] |  |  |  | 6.10E+05 | 9.09E+05
11 | CCCCCCCCCCCCCCCCCC(=O)N(CCO)C(C(=O)NCCN(C)CCNC(=O)C(C1CCCCC1)N(CCO)C(=O)CCCCCCCCCCCCCCCCC)C1CCCCC1 (stereo not shown) [A23I4R22C18] |  |  |  | 4.61E+05 | 3.41E+04
12 | CCCCCCCC/C=C\CCCCCCCC(=O)N(CCOC)C(C(=O)NCCN(C)CCNC(=O)C(C1CCCCC1)N(CCOC)C(=O)CCCCCCC/C=C\CCCCCCCC)C1CCCCC1 (stereo not shown) [A23I4R23C18-1] |  |  |  | 2.96E+05 | 5.87E+06
13 | CCCCCCCCCCCCCCCCCC(=O)N(CCOC)C(C(=O)NCCN(C)CCNC(=O)C(C1CCCCC1)N(CCOC)C(=O)CCCCCCCCCCCCCCCCC)C1CCCCC1 (stereo not shown) [A23I4R23C18] |  |  |  | 1.49E+05 | 5.32E+05
14 | CCCCC/C=C\C/C=C\CCCCCCCC(=O)N(CCCN(C)C)C(C(=O)NCCCCCCCCCCCCCCCCCC)C1CCCCC1 (stereo not shown) [A23I18R2C18-2] |  | 7.16E+05 | 1.52E+06 |  | 
15 | CCCCCCCCCCCCCCCCCCNC(=O)C(C1CCCCC1)N(CCCN(C)C)C(=O)CCCCCCCCCCCCCCCCC (stereo not shown) [A23I18R2C18] |  | 4.83E+04 | 3.87E+05 |  | 
16 | CCCCCCCCCCCCCCCCCCNC(=O)C(C1CCCCC1)N(CCCN1CCOCC1)C(=O)CCCCCCCCCCCCCCCCC (stereo not shown) [A23I18R5C18] |  | 9.13E+04 | 1.85E+03 |  | 
17 | CCCCC/C=C\C/C=C\CCCCCCCC(=O)N(CCN1CCCCC1)C(C(=O)NCCCCCCCCCCCCCCCCCC)C1CCCCC1 (stereo not shown) [A23I18R12C18-2] |  | 2.01E+06 | 6.30E+03 |  | 
